The nature of this series: gradient 5% acetonitrile 3 min, to 50% in 2 min, to 85% in 15 min, held 3 min, 100 µL/min. To be noted: column: Zorbax Extend-C18 2.1 x 50 mm; eluents: water / acetonitrile, 0.1% formic acid. Put shortly:
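Pure standards were run in mixtures of ~100 molecules by HPLC coupled to a quadrupole time-of-flight mass spectrometer. The column was a Zorbax Extend-C18 (2.1 × 50 mm, 1.8 μm) at 100 μL/min, with water and acetonitrile each containing 0.1% formic acid, in positive and negative ionization mode. Dead and dwell volumes were 40 μL and 900 μL. Retention time was taken from computationally picked adduct peaks, each manually inspected, with data collected over 3 months.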
In turn, `O=C(c1ccc(Br)cc1)N1CCC(n2c(-c3ccoc3)nc3cccnc32)C1` (stereo unspecified) displayed an RP-LC retention time of 783 s.

Compound `CC(C)Cn1c(CCNC(=O)c2ccccc2)nc2cccnc21` showed an RP-LC retention time of 683 s.

Compound `Cc1cc(C(=O)N2CCCCC2)c2c(=O)n(CC(=O)c3c(C)n(C)c4ccccc34)c(=O)n(C)c2n1` returned an RP-LC retention time of 934 s.

Compound `CCn1cnc2ccc(-c3noc(C(C)NC(=O)c4ccccc4)n3)cc21` (stereo unspecified) came in with an RP-LC retention time of 636 s.

In the case of `CN(C)c1ccc(C(=O)NC2CCN(c3ccc(F)cc3)C2=O)cc1` (stereo unspecified), the RP-LC retention time came out at 778 s.

Compound `COCCOC1CCOC2(CCN(C(=O)c3ccsc3)CC2)C1` (stereo unspecified) displayed an RP-LC retention time of 670 s.

Compound `Cc1ccc(NC(=O)c2nc(C)oc2C)c(C)c1` showed an RP-LC retention time of 753 s.

`Cc1cc(C)cc(NC(=O)N2CCC3(CC2)NC(=O)c2cc(F)ccc2N3C)c1` displayed an RP-LC retention time of 769 s.

Take `O=C(CSc1nnc2c3cc(-c4ccc(F)cc4)nn3ccn12)Nc1ccccc1Br`: the RP-LC retention time is 935 s.

Consider `CCc1cccc2c3c([nH]c12)[C@@](CC)(CC(=O)O)OCC3`, for which the RP-LC retention time amounted to 925 s.

With `Cc1nc2c(sc3nc(-c4ccccc4)ccc32)c(=O)n1CC(=O)Nc1ccc(C(F)(F)F)cc1`, the RP-LC retention time was determined as 1280 s.

`O=C(NCCn1ncc2c(=O)n(Cc3cccc(Cl)c3)cnc21)c1cc2ccccc2o1` came in with an RP-LC retention time of 780 s.

Compound `COc1ccc(-c2cc(C(=O)Nc3cc(C)cc(C)c3)nn2C2CCS(=O)(=O)C2)cc1` (stereo unspecified) gave an RP-LC retention time of 741 s.

Regarding `CCCn1cc(CCNC(=O)c2cc(C)ccc2C)c2cccnc21`, the RP-LC retention time came out at 827 s.

`CCN(C(=O)C1CCC(C)CC1)c1nc(-c2ccc(C)cc2)cs1` (stereo unspecified) gave an RP-LC retention time of 767 s.

Consider `O=C(NCCOCCOCCNC(=O)Nc1ccccc1)Nc1ccccc1`, for which the RP-LC retention time was 679 s.

Regarding `CCn1cc(-c2nc(CC(=O)Nc3ccc(F)c(F)c3)cs2)c2cccnc21`, the RP-LC retention time amounted to 961 s.

With `O=C(NCc1cccc(C(F)(F)F)c1)c1c[nH]c2ncccc12`, the RP-LC retention time was 760 s.

As for `Cc1ccc(C(=O)N2CCOc3ccc(N(C)C)cc3C2)s1`, the RP-LC retention time came out at 632 s.

The compound `O=C(c1cn(-c2ccc(-c3nc(C4CC4)no3)cn2)cn1)N1CCc2ccccc2C1` registered an RP-LC retention time of 968 s.

The compound `COCC(=O)N1C[C@@H]2CCCN3CCC[C@@H]([C@H]23)[C@H]1CCCC(=O)NCC1CC1` gave an RP-LC retention time of 566 s.

As for `CCOCC(=O)NCCNC(=O)c1ccc(NC(C)=O)cc1`, the RP-LC retention time came out at 570 s.

For the compound `O=S(=O)(Cc1ccccc1)N1CCCCC1c1nc(C2CC2)n[nH]1` (stereo unspecified), the RP-LC retention time stood at 758 s.

In turn, `Cc1nn(-c2ccccc2)c(C)c1S(=O)(=O)Nc1ccc(S(N)(=O)=O)cc1` came in with an RP-LC retention time of 731 s.

Consider `O=C(O)c1cccc(Nc2c(-c3cccc(Br)c3)nc3cnccn23)c1`, for which the RP-LC retention time was determined as 748 s.

Take `CN(C)C(CNC(=O)c1cc(=O)c2ccccc2o1)c1cn(C)c2ccccc12` (stereo unspecified): the RP-LC retention time was found to be 554 s.

As for `Cn1c(=O)n([C@H]2CCN(S(=O)(=O)c3ccccc3Cl)C2)c2ncccc21`, the RP-LC retention time was found to be 840 s.

Consider `COc1ccc(Br)cc1CNC(=O)Cn1cc(-c2nnc(C)o2)c2ccccc21`, for which the RP-LC retention time is 847 s.

Compound `CCSc1nnc(NC(=O)CN(C)c2nc3c(Cl)cccc3s2)s1` yielded an RP-LC retention time of 904 s.

`CCOC(=O)c1sc(NC(=O)c2cc3ccccc3o2)nc1C` showed an RP-LC retention time of 974 s.

For `Cc1ccc(-c2nc3cnccn3c2Nc2cccc(C)c2C)cc1`, the RP-LC retention time was found to be 1040 s.

Values taken from the METLIN SMRT retention time set (Domingo-Almenara et al. 2019).
